Experimental data as given in ChEMBL document CHEMBL1201862, “PubChem BioAssay data set” (2004).
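Assay format: 96-well plates, 48-hour exposure. The concentration for 50% growth inhibition is given as GI50.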 The source made the active and inactive calls. Rule as the data show it: active = GI50 up to about 1.1 µM and inactive = higher.

Columns and labels:
Test in all cases: inhibition of tumour cell growth, NCI panel, 48 h
[1] = test system: SW-620
[2] = test system: A498
[3] = test system: HOP-62
[4] = test system: SN12C
[5] = test system: OVCAR-4
[6] = test system: K562
[7] = test system: ACHN
[8] = test system: A549
[9] = test system: OVCAR-3
[10] = test system: NCI-H460
[11] = test system: U-251
[12] = test system: TK-10
[13] = test system: UO-31
[14] = test system: HCT-15
[15] = test system: LOX IMVI
[16] = test system: MOLT-4
[17] = test system: NCI-H522
[18] = test system: CCRF-CEM
[19] = test system: COLO 205
[20] = test system: SF-539

SMILES	GI50 [1]	GI50 [2]	GI50 [3]	GI50 [4]	GI50 [5]	GI50 [6]	GI50 [7]	GI50 [8]	GI50 [9]	GI50 [10]	GI50 [11]	GI50 [12]	GI50 [13]	GI50 [14] [µM]	GI50 [15]	GI50 [16]	GI50 [17]	GI50 [18]	GI50 [19]	GI50 [20]
CCN(CC(=O)O)C(=O)c1cccnc1	> 100 µM (inactive)	> 100 µM (inactive)	> 100 µM (inactive)	> 100 µM (inactive)	> 100 µM (inactive)	> 100 µM (inactive)	> 100 µM (inactive)	> 100 µM (inactive)	> 100 µM (inactive)	> 100 µM (inactive)	> 100 µM (inactive)	> 100 µM (inactive)	> 100 µM (inactive)	> 100	> 100 µM (inactive)	> 100 µM (inactive)	> 100 µM (inactive)	–	–	–
COc1ccc(/C(Cl)=C(\C=O)c2ccc(Cl)c(Cl)c2)cc1	4.53 µM (inactive)	20.4 µM (inactive)	13.3 µM (inactive)	7.1 µM (inactive)	–	4.04 µM (inactive)	7.26 µM (inactive)	–	17.9 µM (inactive)	5.25 µM (inactive)	5.66 µM (inactive)	18 µM (inactive)	12.8 µM (inactive)	4.6	3.72 µM (inactive)	2.6 µM (inactive)	2.51 µM (inactive)	2.96 µM (inactive)	18.8 µM (inactive)	10.2 µM (inactive)
COc1ccc(N2C(=O)C3c4[nH]c5c(C)cccc5c4C4CCC(C(C)C)CC4C3C2=O)cc1 (stereo not drawn)	11 µM (inactive)	14 µM (inactive)	10 µM (inactive)	8.3 µM (inactive)	14 µM (inactive)	2.01 µM (inactive)	13.7 µM (inactive)	5.41 µM (inactive)	13.9 µM (inactive)	7.94 µM (inactive)	10 µM (inactive)	24.4 µM (inactive)	11.8 µM (inactive)	10	3.59 µM (inactive)	2.12 µM (inactive)	4.51 µM (inactive)	–	12.4 µM (inactive)	–
N=C1/C(=C/c2ccc(F)cc2)C(=O)N=C2SC=NN12	> 100 µM (inactive)	–	> 100 µM (inactive)	> 100 µM (inactive)	> 100 µM (inactive)	> 100 µM (inactive)	> 100 µM (inactive)	> 100 µM (inactive)	> 100 µM (inactive)	> 100 µM (inactive)	> 100 µM (inactive)	> 100 µM (inactive)	> 100 µM (inactive)	> 100	12.9 µM (inactive)	> 100 µM (inactive)	> 100 µM (inactive)	> 100 µM (inactive)	> 100 µM (inactive)	> 100 µM (inactive)
Cc1ccc(C(=O)N/N=C2/C(=O)c3c4ccccc4cc4cccc2c34)cc1	8.71 µM (inactive)	> 100 µM (inactive)	16.2 µM (inactive)	21.8 µM (inactive)	18.2 µM (inactive)	> 21.1 µM (inactive)	7.82 µM (inactive)	32.4 µM (inactive)	22.5 µM (inactive)	15 µM (inactive)	21 µM (inactive)	25.2 µM (inactive)	17.2 µM (inactive)	20.6	12.4 µM (inactive)	–	18 µM (inactive)	3.98 µM (inactive)	31.3 µM (inactive)	15.5 µM (inactive)
C=COC(=O)N1C2CCCC(Cl)(C(C)=O)C1CC2 (stereo not drawn)	> 100 µM (inactive)	> 100 µM (inactive)	> 100 µM (inactive)	> 100 µM (inactive)	> 100 µM (inactive)	> 100 µM (inactive)	> 100 µM (inactive)	> 100 µM (inactive)	> 100 µM (inactive)	> 100 µM (inactive)	> 100 µM (inactive)	> 100 µM (inactive)	> 100 µM (inactive)	> 100	> 100 µM (inactive)	> 100 µM (inactive)	> 100 µM (inactive)	13.4 µM (inactive)	> 100 µM (inactive)	–
O=C(C/C=C/c1ccccc1)c1ccccc1	31.2 µM (inactive)	15.7 µM (inactive)	26.9 µM (inactive)	24.3 µM (inactive)	–	–	16.6 µM (inactive)	10.8 µM (inactive)	41.6 µM (inactive)	19.9 µM (inactive)	14.6 µM (inactive)	23.2 µM (inactive)	14.1 µM (inactive)	18.8	12 µM (inactive)	20.8 µM (inactive)	16.9 µM (inactive)	22.2 µM (inactive)	22.5 µM (inactive)	25 µM (inactive)
CC1=C(C(=O)Nc2ccc(Cl)c(Cl)c2)C(c2ccc([N+](=O)[O-])cc2)C(C(=O)Nc2ccc(Cl)c(Cl)c2)=C(C)N1	3.05 µM (inactive)	3.32 µM (inactive)	2.54 µM (inactive)	2.34 µM (inactive)	2.64 µM (inactive)	1.07 µM (active)	3.09 µM (inactive)	2.82 µM (inactive)	1.66 µM (inactive)	2.41 µM (inactive)	2.49 µM (inactive)	7.18 µM (inactive)	2.69 µM (inactive)	2.6	2.06 µM (inactive)	0.223 µM (active)	2.55 µM (inactive)	–	1.71 µM (inactive)	3.13 µM (inactive)
O=CN1CCN(c2ccc3ccc(O)nc3n2)CC1	> 100 µM (inactive)	–	> 100 µM (inactive)	> 100 µM (inactive)	> 100 µM (inactive)	> 100 µM (inactive)	> 100 µM (inactive)	> 100 µM (inactive)	> 100 µM (inactive)	> 100 µM (inactive)	> 100 µM (inactive)	> 100 µM (inactive)	> 100 µM (inactive)	> 100	> 100 µM (inactive)	> 100 µM (inactive)	51.8 µM (inactive)	> 100 µM (inactive)	> 100 µM (inactive)	> 100 µM (inactive)
C/C(=N/NC(=O)CC(=O)N(C(=O)c1ccccc1Cl)c1ccc(C)cc1)c1cc2ccccc2oc1=O	> 100 µM (inactive)	> 100 µM (inactive)	> 100 µM (inactive)	> 100 µM (inactive)	> 100 µM (inactive)	> 100 µM (inactive)	> 100 µM (inactive)	> 100 µM (inactive)	> 100 µM (inactive)	> 100 µM (inactive)	> 100 µM (inactive)	95.5 µM (inactive)	> 100 µM (inactive)	> 100	73.1 µM (inactive)	–	> 100 µM (inactive)	> 100 µM (inactive)	> 100 µM (inactive)	> 100 µM (inactive)
COc1ccccc1CC(C)N (stereo not drawn)	> 100 µM (inactive)	> 100 µM (inactive)	> 100 µM (inactive)	> 100 µM (inactive)	> 100 µM (inactive)	> 100 µM (inactive)	> 100 µM (inactive)	> 100 µM (inactive)	> 100 µM (inactive)	> 100 µM (inactive)	> 100 µM (inactive)	> 100 µM (inactive)	> 100 µM (inactive)	> 100	> 100 µM (inactive)	–	> 100 µM (inactive)	> 100 µM (inactive)	> 100 µM (inactive)	> 100 µM (inactive)
Cn1nc2ccc3nccc(N(CCO)CCO)c3c2n1	> 100 µM (inactive)	> 100 µM (inactive)	> 100 µM (inactive)	> 100 µM (inactive)	–	> 100 µM (inactive)	> 100 µM (inactive)	> 100 µM (inactive)	> 100 µM (inactive)	> 100 µM (inactive)	> 100 µM (inactive)	> 100 µM (inactive)	> 100 µM (inactive)	> 100	> 100 µM (inactive)	> 100 µM (inactive)	> 100 µM (inactive)	> 100 µM (inactive)	> 100 µM (inactive)	> 100 µM (inactive)
FC(F)(F)c1ccc2c(c1)N(CCCNCCN1CCOCC1)c1ccccc1S2	10.2 µM (inactive)	17.9 µM (inactive)	12.4 µM (inactive)	13.3 µM (inactive)	–	2.99 µM (inactive)	12.3 µM (inactive)	14.4 µM (inactive)	11.4 µM (inactive)	11.2 µM (inactive)	11.6 µM (inactive)	12.7 µM (inactive)	3.83 µM (inactive)	6.52	8.85 µM (inactive)	4.74 µM (inactive)	14.9 µM (inactive)	12.6 µM (inactive)	2.37 µM (inactive)	4.7 µM (inactive)
O=S(=O)(O)Nc1ccc(-c2nc3ccccc3s2)cc1Cl	> 100 µM (inactive)	> 100 µM (inactive)	> 100 µM (inactive)	> 100 µM (inactive)	> 100 µM (inactive)	> 100 µM (inactive)	> 100 µM (inactive)	> 100 µM (inactive)	> 100 µM (inactive)	> 100 µM (inactive)	> 100 µM (inactive)	8.09 µM (inactive)	> 100 µM (inactive)	> 100	> 100 µM (inactive)	–	> 100 µM (inactive)	> 100 µM (inactive)	> 100 µM (inactive)	> 100 µM (inactive)
CCC(C)[C@H]1C(=O)N=C(N)N1C(=O)OCc1ccccc1 (stereo partly drawn)	> 100 µM (inactive)	> 100 µM (inactive)	> 100 µM (inactive)	> 100 µM (inactive)	> 100 µM (inactive)	> 100 µM (inactive)	> 100 µM (inactive)	–	> 100 µM (inactive)	> 100 µM (inactive)	> 100 µM (inactive)	> 100 µM (inactive)	78 µM (inactive)	> 100	> 100 µM (inactive)	> 100 µM (inactive)	> 100 µM (inactive)	–	> 100 µM (inactive)	–
